{"source": "patent US7700101B2", "about": "“Reagents and method for modulating Dkk-mediated interactions” (Wyeth, priority 2001, dated 2010)", "key": {"[1]": {"test_system": "LRP5 LBD", "sequence (as listed by the source)": "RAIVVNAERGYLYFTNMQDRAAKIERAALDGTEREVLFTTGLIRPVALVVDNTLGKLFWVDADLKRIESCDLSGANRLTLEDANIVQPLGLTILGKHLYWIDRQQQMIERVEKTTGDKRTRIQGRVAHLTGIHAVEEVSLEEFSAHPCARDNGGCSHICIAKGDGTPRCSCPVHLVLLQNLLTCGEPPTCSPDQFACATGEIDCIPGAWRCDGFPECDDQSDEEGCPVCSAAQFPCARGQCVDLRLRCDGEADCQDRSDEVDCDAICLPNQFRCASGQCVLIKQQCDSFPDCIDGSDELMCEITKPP", "assay": "Yeast-2 hybrid interaction trap LRP5 LBD-LexA / Gal4AD-Dkk", "type": "binding", "settings": "LRP5LBD-LexA bait and Gal4AD-Dkk prey", "excerpt": "Small molecule inhibitors (or partial inhibitors) of the Dkk-LRP interaction may be an excellent osteogenic therapeutic. One way to investigate this important protein-protein interaction is using Y2H techniques substantially as described above and as is well known in the art. […] This interaction is quantitated using a reporter element known in the art, e.g., LacZ or luciferase, which is only activated when bait and prey interact. The Y2H assay is used to screen for compounds which modulate the LRP-Dkk interaction. Such a modulation would be visualized by a reduction in reporter element activation signifying a weaker or disrupted interaction, or by an enhancement of the reporter element activation signifying a stronger interaction. Thus, the Y2H assay can be used as a high-throughput screening technique to identify compounds which disrupt or enhance Dkk interaction with LRP5/LRP6/HBM, which may serve as potential therapeutics.\nFor example, the Interaction Trap methodology can be used as follows. […] With the LRP5LBD-LexA bait and the Gal4AD-Dkk prey, over a 20-fold activation of a lacZ reporter (under the control of a single LexA operator) was detected over the background. […] As a result, small molecules may be identified that modulate this interaction between LRP and Dkk."}, "[2]": {"biological_target": "LRP6 (Homo sapiens, UniProt O75581)", "sequence (O75581 20-1613)": "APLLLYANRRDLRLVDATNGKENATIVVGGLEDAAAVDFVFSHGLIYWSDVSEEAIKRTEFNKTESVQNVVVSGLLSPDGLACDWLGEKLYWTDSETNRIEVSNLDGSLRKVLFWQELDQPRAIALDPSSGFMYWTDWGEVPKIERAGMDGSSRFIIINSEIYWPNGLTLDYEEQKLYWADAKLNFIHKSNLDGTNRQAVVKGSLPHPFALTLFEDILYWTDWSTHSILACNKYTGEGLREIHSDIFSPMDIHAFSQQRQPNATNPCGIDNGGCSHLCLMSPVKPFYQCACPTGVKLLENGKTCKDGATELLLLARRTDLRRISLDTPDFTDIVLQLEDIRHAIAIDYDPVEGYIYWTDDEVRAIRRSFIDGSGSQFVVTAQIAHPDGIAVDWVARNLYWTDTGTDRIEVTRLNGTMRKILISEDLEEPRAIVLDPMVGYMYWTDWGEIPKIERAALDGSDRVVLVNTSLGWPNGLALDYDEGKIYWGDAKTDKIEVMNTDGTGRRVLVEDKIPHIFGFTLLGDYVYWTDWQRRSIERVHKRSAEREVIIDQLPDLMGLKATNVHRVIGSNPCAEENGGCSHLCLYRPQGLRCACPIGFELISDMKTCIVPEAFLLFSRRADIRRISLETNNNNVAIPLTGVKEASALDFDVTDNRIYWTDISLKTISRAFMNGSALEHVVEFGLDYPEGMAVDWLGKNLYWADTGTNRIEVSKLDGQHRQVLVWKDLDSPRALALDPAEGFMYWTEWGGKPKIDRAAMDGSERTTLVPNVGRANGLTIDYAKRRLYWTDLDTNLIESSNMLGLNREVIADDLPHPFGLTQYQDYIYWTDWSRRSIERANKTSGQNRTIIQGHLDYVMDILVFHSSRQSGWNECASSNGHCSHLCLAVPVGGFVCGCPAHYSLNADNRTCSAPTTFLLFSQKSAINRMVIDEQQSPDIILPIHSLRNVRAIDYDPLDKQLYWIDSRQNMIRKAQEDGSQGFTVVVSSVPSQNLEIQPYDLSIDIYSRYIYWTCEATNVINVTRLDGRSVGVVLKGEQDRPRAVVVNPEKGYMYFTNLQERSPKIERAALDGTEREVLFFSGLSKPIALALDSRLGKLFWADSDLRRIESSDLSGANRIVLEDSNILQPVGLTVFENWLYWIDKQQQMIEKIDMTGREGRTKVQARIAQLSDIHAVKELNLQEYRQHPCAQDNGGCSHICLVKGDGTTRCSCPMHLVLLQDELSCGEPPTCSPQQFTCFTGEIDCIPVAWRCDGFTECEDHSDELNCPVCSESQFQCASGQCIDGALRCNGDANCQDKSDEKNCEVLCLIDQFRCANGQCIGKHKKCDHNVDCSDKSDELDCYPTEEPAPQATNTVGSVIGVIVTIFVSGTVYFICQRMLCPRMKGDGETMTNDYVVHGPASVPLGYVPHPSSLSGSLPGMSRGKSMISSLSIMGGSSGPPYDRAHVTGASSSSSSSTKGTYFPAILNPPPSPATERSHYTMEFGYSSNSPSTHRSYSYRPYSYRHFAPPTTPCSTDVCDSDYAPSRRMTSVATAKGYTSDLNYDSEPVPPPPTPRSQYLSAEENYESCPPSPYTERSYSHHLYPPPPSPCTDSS", "assay": "Cell-based TCF reporter high-throughput assay, LRP6 cDNA", "design": "Full length LRP6 was isolated from the pED6dpc4 vector; expressed in transfected cells; host or cells: HOB-03-CE6 osteoblastic cells; U2OS osteosarcoma cells; HEK293", "settings": "U2OS cells, Wnt1 or Wnt3a/Wnt1 co-transfected, FIG. 20", "excerpt": "To develop a high throughput assay, the TCF-luciferase assay described in Example 7 was modified utilizing low level expression of endogenous LRP5/6 in U2OS and HEK293 cells. However, HOB-03-CE6 cells and any other cells which show a differential response to Dkk depending on whether LRP5, LRP6 or HBM are expressed. Using U2OS (human osteosarcoma) and HEK293 (ATCC) cells, the TCF-luciferase and tk-Renilla reporter element constructs were co-transfected along with Wnt3a/1 and Dkk. Wnt3a alone, by using endogenous LRP5/6, was able to stimulate TCF reporter gene activation. When Dkk, is co-transfected with Wnt3a/Wnt 1 and reporters (TCF-luci and tk-Renilla), DEkk represses reporter element activity. In addition, the TCF-luci signal is activated by Wnt3a/Wnt1 can be repressed by the addition of Dkk-enriched conditioned media to the cells containing Wnt3a/Wnt1 and reporters.\nThe Dkk-mediated repression of the reporter is dependent upon the concentration of transfected Dkk cDNA or on the amount of Dkk-conditioned media added. In addition, the Dkk-mediated reporter suppression can be altered by the co-transfection of LRP5, LRP6, and HBM cDNAs in the U2OS or HEK293 cells. In general, U2OS cells show greater sensitivity to Dkk-mediated reporter suppression than that in HEK-293 cells. […]"}, "[3]": {"test_system": "canonical Wnt pathway", "assay": "Xenopus embryo assay, hDkk-1 dose-response (enlarged anterior structures)", "type": "in vivo", "settings": "250 pg/embryo hDkk-1 RNA; FIG. 10", "experimental": "mRNA for microinjection into Xenopus embryos is generated by in vitro transcription using the CDNA constructs in the pCS2^+ vector described above as template. RNA is synthesized using the Ambion mMessage mMachine high yield capped RNA transcription kit (Cat. #1340) following the manufacturer's specifications for the Sp6 polymerase reactions. RNA products were brought up to a final volume of 50 μl in sterile, glass-distilled water and purified over Quick Spin-Columns for Radiolabelled RNA Purification G50-Sephadex (Roche, Cat. #1274015) following the manufacturer's specifications. The resulting eluate was finally extracted with phenol:chloroform:isoamyl alcohol and isopropanol precipitated using standard protocols (Sambrook et al., 1989). Final RNA volumes were approximately 50 μl. RNA concentration was determined by absorbance values at 260 nm and 280 nm. RNA integrity was visualized by ethidium bromide staining of denaturing (formaldehyde) agarose gel electrophoresis (Sambrook et al., 1989). Various amounts of RNA (2 pg to 1 ng) are injected into the ventral blastomere of the 4- or 8-cell Xenopus embryo. These protocols are described in Moon et al., Technique-J. of Methods in Cell and Mol. Biol. 1: 76-89 (1989), and Peng, Meth. Cell. Biol. 36: 657-62 (1991). […]"}}, "data": [{"substance": "Dkk-1: Dickkopf-1 protein, antagonist of the Wnt pathway; expressed from human cDNA (RNA or plasmid)", "values": [{"measurement": "activation of lacZ reporter over the background", "setting": "[1]", "value": "> 20", "unit": "fold"}, {"measurement": "Dkk-mediated repression of LRP6 signaling (TCF reporter)", "setting": "[2]", "value": "represses"}, {"measurement": "Dkk-mediated repression of LRP6 signaling (TCF reporter)", "setting": "[2]; listed as Dkk1", "value": "maximal"}, {"measurement": "embryos displaying enlarged anterior structures (big heads)", "setting": "[3]", "value": "over 90%"}]}]}
